Each compound was assayed against T1, Recombinant human BRD4 containing dual bromodomains (BRD4-BD12 (1-477)) (Homo sapiens, UniProt O60885) (assay: BRD4 Alphascreen binding assay).
T1 construct: Recombinant human BRD4 containing dual bromodomains (BRD4-BD12 (1-477)); made in house; host or cells: E. coli BL21-CodonPlus (DE3), modified pET vector
Procedure: BRD4 Alphascreen Binding Assay
Binding of compounds of Formula (I) with BRD4 was assessed using Alphascreen binding assay. The inhibition of the interaction between BRD4 and its acetylated target protein was measured quantitatively using recombinant BRD4 protein, an acetylated Histone 4 peptide, and AlphaScreen™ technology. In absence of inhibition of the BRD4 protein bound to AlphaScreen™ nickel chelate acceptor beads can interact with the acetylated Histone 4 peptide which was immobilized by the AlphaScreen™ Streptavidin coated beads. This interaction brings donor and acceptor beads in proximity. The close proximity allows the singlet oxygen produced by laser excitation of the donor beads to reach the acceptor beads and generate a luminescence signal. BRD4 inhibitors result in a decrease in the proximity signal through an inhibition of the BRD4—acetylated peptide interaction.
Recombinant human BRD4 containing dual bromodomains (BRD4-BD12 (1-477)) was prepared and purified as described in protein expression and purification session. The peptide was human Histone H41-21K5AcK8AcK12AcK16Ac-Biotin (Anaspec CA, USA).
Protocol for BRD4 assay: All components are prepared in buffer composed of 50 mM HEPES pH 7.5, 50 mM NaCl, 0.01% BSA, 0.01% Triton X-100, 2 mM DTT. Test compounds and DMSO vehicle are diluted 1:50 in buffer and a 4 μL volume was transferred to an Alphaplate. 5.5 μL of Bromodomain protein and 5.5 μL of peptide are added to wells containing 4 μL of various concentrations of test compounds of Formula (I) or DMSO vehicle in an Alphaplate (PerkinElmer GA, USA) and incubated for 1 hour at room temperature. 5 μL donor and acceptor bead mixture was then added with final concentrations of 7.5 μg/ml. 30 minutes after bead addition, Alpha signal was read on the Envision spectrometer (λEx 680 nm, λEm 520-620 nm). Final concentrations of bromodomain proteins and peptide are as shown below.
All data were normalized to the mean of 16 high and 16 low control wells on each plate. A four parameter curve fit of the following formula was then applied: Y=A+((B−A)/(1+((C/x)^D))) Where ‘A’ is the minimum, ‘B’ is the maximum, ‘C’ is the IC50 and ‘D’ is the Hill slope. Protein Expression and Purification
Recombinant human BRD4 containing dual bromodomains (BRD4-BD12 (1-477)) was expressed in E. coli cells (in a modified pET vector) with an N-terminal six-His tag and purified using a combination of both IMAC (Ni-affinity) and size exclusion chromatography steps.
Recombinant BRD4 was expressed using the E. coli strain BL21-CodonPlus (DE3) (Agilent Technologies CA, USA). Cells were grown in Terrific Broth (TB) media to an OD600 of 2.0 at 37° C. at which temperature was reduced to 18° C., protein was induced with 0.1 mM isopropyl-β-D-thiogalactopyranoside (“IPTG”) for 12-18 hours and harvested by centrifugation at 8000×g for 20 minutes. Cells were re-suspended in 40 mM Tris-HCl pH 8.0, 0.5 M NaCl, 25 mM Imidazole, 5% glycerol, 1/200 vol. Protease Inhibitor Cocktail Set III (Calbiochem), 5 mM beta-mercaptoethanol (“BME”), 0.5 mg/mL Lysozyme, and 0.5 mg/mL DNaseI, incubated on ice for 30 minutes and lysed with a cell disruptor (MicroFluidics MA, USA). The lysate was clarified by centrifugation at 20,000×g for 2 hours. The protein was captured with Ni-NTA resin (Life Technologies, USA). Contaminating proteins were washed off with 40 mM Tris-HCl pH 8.0, 0.5 M NaCl, 25 mM Imidazole, 5% glycerol, and 5 mM BME. Following 3× wash steps, protein was eluted step wise into wash buffer containing 50, 100, 150, 500 mM Imidazole. The protein was further purified using Gel Filtration column 16/60 Superdex 200 (GE Biosciences NJ, USA) in 10 mM HEPES pH 8.0, 150 mM NaCl, and 5 mM DTT. Glycerol was added to a final concentration of 12% and the protein was aliquoted and flash-frozen in liquid Nitrogen.
`Cc1noc(C)c1-c1cnc2c(c1)c(-c1ccc(C(=O)O)cc1OCC(F)(F)F)cn2[C@@H](C)c1ccccn1` [P-0115, (S)-4-(5-(3,5-dimethylisoxazol-4-yl)-1-(1-(pyridin-2-yl)ethyl)-1H-pyrrolo[2,3-b]pyridin-3-yl)-3-(2,2,2-trifluoroethoxy)benzoic acid] was tested, and the IC50 was 8 to 1000 µM. `Cc1noc(C)c1-c1cnc2c(c1)c(-c1ccc(C(=O)O)cc1C(F)(F)F)cn2[C@@H](C)c1ccccn1` [P-0116, (S)-4-(5-(3,5-dimethylisoxazol-4-yl)-1-(1-(pyridin-2-yl)ethyl)-1H-pyrrolo[2,3-b]pyridin-3-yl)-3-(trifluoromethyl)benzoic acid] was tested, and the IC50 was 1 to 8 µM. `CCCOc1cc(C(=O)O)cc(OCCC)c1-c1cn([C@@H](C)c2ccccn2)c2ncc(-c3c(C)noc3C)cc12` [P-0117, (S)-4-(5-(3,5-dimethylisoxazol-4-yl)-1-(1-(pyridin-2-yl)ethyl)-1H-pyrrolo[2,3-b]pyridin-3-yl)-3,5-dipropoxybenzoic acid] was tested, and the IC50 was 1 to 8 µM. `Cc1noc(C)c1-c1cnc2c(c1)c(-c1c(OC(C)C)cc(C(=O)O)cc1OC(C)C)cn2[C@@H](C)c1ccccn1` [P-0118, (S)-4-(5-(3,5-dimethylisoxazol-4-yl)-1-(1-(pyridin-2-yl)ethyl)-1H-pyrrolo[2,3-b]pyridin-3-yl)-3,5-diisopropoxybenzoic acid] showed an IC50 of 8 to 1000 µM. Compound `COc1cc(C(=O)O)cc(OC)c1-c1cn(C(C)c2ccccc2)c2cc(-c3c(C)noc3C)cnc12` (stereo not shown) [P-0119, 4-(6-(3,5-dimethylisoxazol-4-yl)-1-(1-phenylethyl)-1H-pyrrolo[3,2-b]pyridin-3-yl)-3,5-dimethoxybenzoic acid] has an IC50 of 1 to 8 µM. In the case of `Cc1noc(C)c1-c1cnc2c(-c3ccccc3C(=O)O)cn(C(C)c3ccccc3)c2c1` (stereo not shown) [P-0120, 2-(6-(3,5-dimethylisoxazol-4-yl)-1-(1-phenylethyl)-1H-pyrrolo[3,2-b]pyridin-3-yl)benzoic acid], the IC50 is reported as 1 to 8 µM. Compound `Cc1noc(C)c1-c1cnc2c(C(=O)C3CCC3)cn(-c3c(Cl)cc(C(=O)O)cc3Cl)c2c1` [P-0121, 3,5-dichloro-4-(3-(cyclobutanecarbonyl)-6-(3,5-dimethylisoxazol-4-yl)-1H-pyrrolo[3,2-b]pyridin-1-yl)benzoic acid] has an IC50 of 1 to 8 µM. In the case of `Cc1noc(C)c1-c1cnc2c(c1)c(-c1cccc(C(=O)O)n1)cn2C(C)c1ccccn1` (stereo not shown) [P-0122, 6-(5-(3,5-dimethylisoxazol-4-yl)-1-(1-(pyridin-2-yl)ethyl)-1H-pyrrolo[2,3-b]pyridin-3-yl)picolinic acid], the IC50 is reported as 8 to 1000 µM. `Cc1noc(C)c1-c1cnc2c(c1)c(-c1ccc(C(=O)O)cn1)cn2C(C)c1ccccn1` (stereo not shown) [P-0123, 6-(5-(3,5-dimethylisoxazol-4-yl)-1-(1-(pyridin-2-yl)ethyl)-1H-pyrrolo[2,3-b]pyridin-3-yl)nicotinic acid] showed an IC50 of 8 to 1000 µM. With `Cc1noc(C)c1-c1cnc2c(c1)c(-c1cc(C(=O)O)ccn1)cn2C(C)c1ccccn1` (stereo not shown) [P-0124, 2-(5-(3,5-dimethylisoxazol-4-yl)-1-(1-(pyridin-2-yl)ethyl)-1H-pyrrolo[2,3-b]pyridin-3-yl)isonicotinic acid] the IC50 was 8 to 1000 µM. Compound `Cc1noc(C)c1-c1cnc2c(c1)c(-c1ccc(F)c(C(=O)O)c1F)cn2[C@@H](C)c1ccccn1` [P-0125, (S)-3-(5-(3,5-dimethylisoxazol-4-yl)-1-(1-(pyridin-2-yl)ethyl)-1H-pyrrolo[2,3-b]pyridin-3-yl)-2,6-difluorobenzoic acid] has an IC50 of 8 to 1000 µM. For `Cc1noc(C)c1-c1cnc2c(c1)c(-c1ccnc(C(=O)O)n1)cn2C(C)c1ccccn1` (stereo not shown) [P-0126, 4-(5-(3,5-dimethylisoxazol-4-yl)-1-(1-(pyridin-2-yl)ethyl)-1H-pyrrolo[2,3-b]pyridin-3-yl)pyrimidine-2-carboxylic acid], the IC50 was 8 to 1000 µM. `CCCOc1cc(C(=O)O)cc(OCCC)c1-n1cc(CC2CCC2)c2ncc(-c3c(C)noc3C)cc21` [P-0127, 4-(3-(cyclobutylmethyl)-6-(3,5-dimethylisoxazol-4-yl)-1H-pyrrolo[3,2-b]pyridin-1-yl)-3,5-dipropoxybenzoic acid] gave an IC50 of 8 to 1000 µM.
